# Test results published in ChEMBL document CHEMBL3832761, “MMV Pathogen Box Bioactivity Data” (2017).
# What was measured:
# [1] = HL60 CC50 (uM) Cytotoxicity; type: functional; details: HL-60
# Plasmodium berghei [2] = test: Antimalarial activity: Liver Stage Plasmodium berghei sporozoite Luciferase assay: inhibition at 10 uM (%); type: functional
# Plasmodium falciparum [3] = test: Antimalarial activity: Asexual Blood Stage Plasmodium falciparum Dd2 IC50 (uM); type: functional, organism-based
# HepG2 [4] = test: Cytotoxicity data HepG2 CC20 (uM); type: functional
# Plasmodium falciparum [5] = test: Antimalarial activity: Gametocytes Plasmodium falciparum NF54 Gametocytes Stage V: inhibition at 10 uM (%); type: functional
# Plasmodium falciparum [6] = test: Antimalarial activity: Asexual Blood Stage Plasmodium falciparum 3D7 IC50 (uM); type: functional, organism-based
# HepG2 [7] = test: HepG2 inhibition at 10 uM (%) Cytotoxicity; type: functional; details: Homo sapiens
# Plasmodium berghei [8] = test: Antimalarial activity: Liver Stage Plasmodium berghei sporozoite Luciferase assay IC50 (uM); type: functional, organism-based
# HepG2 [9] = test: HepG2 CC50 (uM) Cytotoxicity; type: functional; details: Homo sapiens
# Plasmodium falciparum [10] = test: Antimalarial activity: Asexual Blood Stage Plasmodium falciparum W2 IC50 (uM); type: functional, organism-based
IC50 (Plasmodium falciparum [3]) [nM],IC50 (Plasmodium falciparum [6]) [nM],IC50 (Plasmodium berghei [8]) [nM],IC50 (Plasmodium falciparum [10]) [nM],Structure (SMILES),CC50 [1] [nM],Inhibition (Plasmodium berghei [2]) [%],CC20 (HepG2 [4]) [nM],Inhibition (Plasmodium falciparum [5]) [%],inhibition at 10 µM (HepG2 [7]) [%],CC50 (HepG2 [9]) [nM]
> 2000,1050,,,O=C(Nc1ccnc(-c2cccnc2)n1)c1cc(C(F)(F)F)cc(C(F)(F)F)c1,> 50000,0,>80000,10,13,
,400,,,Nc1ncc(-c2cn[nH]c2)cc1-c1nc2cc(Cl)cnc2[nH]1,> 50000,0,2820,0,7,
1710,1130,> 10000,2110,CN1CCN(c2nccc3nc(-c4ccc(F)c(F)c4)[nH]c23)CC1,,56,10300,32,,> 10000
920,580,2250,310,CC1CC1C(=O)NC1CCN(CC2(c3ccccc3)CCCCC2)CC1 (stereo not given),,100,>80000,24,,> 10000
1330,830,2350,1550,O=C(Nc1cccc(Cl)c1)c1cnc(N2CCN(c3ccncc3)CC2)c(Cl)c1,,99,2680,51,,> 10000
1410,820,> 10000,540,Cc1cc(C(=O)Nc2ccc(-c3ccccc3)cc2)no1,,97,>80000,24,,> 10000
740,230,> 10000,420,Nc1nccc2ccc(Oc3ccncc3)cc12,,52,>80000,43,,> 10000
1670,1330,1410,820,O=C(NC1CC1)c1ccc(N2CCC(Cc3ccccc3)CC2)nc1,,100,>80000,28,,> 10000
1500,710,170,680,Cc1nnc(NC(=O)c2cn(-c3ccccc3)nc2-c2ccccc2C)o1,,100,920,16,,> 10000
> 2000,1580,6770,1070,Cc1cccc(NC(=O)c2cc(S(=O)(=O)N(C)c3ccc(F)cc3)ccc2Cl)n1,,86,26400,3,,> 10000
1630,1080,1470,690,OCCc1ccc(Nc2nccc(-c3nnc4ccccn34)n2)cc1,,99,1670,11,,8100
190,410,320,1050,CC(C)(CN)c1nc(-c2ccc(Cl)c(O)c2)c(-c2ccnc(N)n2)[nH]1,,100,5770,9,,> 10000
1530,1630,> 10000,1360,Clc1cccc(C(c2ccc(CN3CCNCC3)cc2)n2ccnc2)c1 (stereo not given),,83,15200,36,,> 10000
1730,1040,630,400,Cc1ccc(S(=O)(=O)N2CCN(C(=O)c3cc(-c4ccccc4)n[nH]3)CC2)cc1,,92,>80000,17,,> 10000
2910,1580,1970,3850,CN(C)CCNC(=O)N1CCCN(c2ncnc3cc(-c4ccccc4)sc23)CC1,,73,6210,5,,> 10000
1470,630,> 6000,1300,Cc1ccc(S(=O)(=O)n2cc(-c3ccnc(N)c3)c3cc(Br)cnc32)cc1,,99,5280,17,,> 6000
2510,930,7350,1180,Cc1ccc(NC(=O)c2cc(S(=O)(=O)NC(C)(C)C)ccc2C)nc1,,82,>80000,2,,> 7500
780,510,> 10000,1040,FC(F)(F)c1cccc(-c2nc3c(NCc4ccncc4)nccc3[nH]2)c1,,62,14600,11,,> 10000
2490,1280,> 10000,2530,COc1cccc(-c2cc3c(Nc4cccnc4)nccc3[nH]2)c1,,77,2290,6,,> 10000
3100,960,9150,1140,CC(C)C(NC(=O)Cc1cccc2ccccc12)C(=O)Nc1cccc(C#N)c1 (stereo not given),,76,14000,5,,> 10000
780,710,6540,2060,O=C(NC1CCN(c2ccnc3ccccc23)C1)c1cccc(C(F)(F)F)c1 (stereo not given),,99,5820,1,,> 10000
,160,,,CCC(NC(=O)c1ccccc1NC(=O)c1ccc(C)cc1)C(=O)OC (stereo not given),> 50000,0,,29,5,
1260,1160,200,1330,O=C1N(Cc2cc3ccccc3s2)CC2CN(Cc3ccccc3)CCN12 (stereo not given),,100,26400,53,,> 10000
5030,1940,4590,2590,Cc1nc(-c2cccc(NCc3ccccc3)c2)[nH]c1C,,100,27700,16,,> 10000
1800,660,> 10000,1970,CCOc1ccc(-c2nc(NC(=O)CS(=O)(=O)c3ccccc3)sc2C)cc1,,59,20000,17,,> 10000

Structure (SMILES),IC50 (Plasmodium falciparum [3]) [nM],IC50 (Plasmodium falciparum [6]) [nM],IC50 (Plasmodium berghei [8]) [nM],IC50 (Plasmodium falciparum [10]) [nM],CC50 [1] [nM],Inhibition (Plasmodium berghei [2]) [%],CC20 (HepG2 [4]) [nM],Inhibition (Plasmodium falciparum [5]) [%],inhibition at 10 µM (HepG2 [7]) [%],CC50 (HepG2 [9]) [nM]
CNC(=O)C1Cc2c([nH]c3cc(Cl)ccc23)C2(CCN(CCc3ccccc3)CC2)N1 (stereo not given),1950,860,4510,4550,,99,10000,33,,> 10000
Cc1cccc(C(=O)Nc2ccnc(N(C)C3CCN(CC(C)C)CC3)c2)c1,5180,2100,> 10000,9250,,66,13700,10,,> 10000
